Reference: patent US9790253B2, “OSW-1 analogs and conjugates, and uses thereof” (priority 2011, dated 2017)
Entries after “also recorded” stand apart in the source; their conditions may differ.

What was measured:
[1] = molecular target: T1, OSBP1 protein levels in HCT-116 cells (Homo sapiens, UniProt P22059); assay: OSBP1 protein levels by western blotting; assay type: cell-based; settings: for reduction in OSBP1 protein levels: 24 h
T1 construct: endogenous in cells; host or cells: HCT-116
T1 sequence (P22059 1-807): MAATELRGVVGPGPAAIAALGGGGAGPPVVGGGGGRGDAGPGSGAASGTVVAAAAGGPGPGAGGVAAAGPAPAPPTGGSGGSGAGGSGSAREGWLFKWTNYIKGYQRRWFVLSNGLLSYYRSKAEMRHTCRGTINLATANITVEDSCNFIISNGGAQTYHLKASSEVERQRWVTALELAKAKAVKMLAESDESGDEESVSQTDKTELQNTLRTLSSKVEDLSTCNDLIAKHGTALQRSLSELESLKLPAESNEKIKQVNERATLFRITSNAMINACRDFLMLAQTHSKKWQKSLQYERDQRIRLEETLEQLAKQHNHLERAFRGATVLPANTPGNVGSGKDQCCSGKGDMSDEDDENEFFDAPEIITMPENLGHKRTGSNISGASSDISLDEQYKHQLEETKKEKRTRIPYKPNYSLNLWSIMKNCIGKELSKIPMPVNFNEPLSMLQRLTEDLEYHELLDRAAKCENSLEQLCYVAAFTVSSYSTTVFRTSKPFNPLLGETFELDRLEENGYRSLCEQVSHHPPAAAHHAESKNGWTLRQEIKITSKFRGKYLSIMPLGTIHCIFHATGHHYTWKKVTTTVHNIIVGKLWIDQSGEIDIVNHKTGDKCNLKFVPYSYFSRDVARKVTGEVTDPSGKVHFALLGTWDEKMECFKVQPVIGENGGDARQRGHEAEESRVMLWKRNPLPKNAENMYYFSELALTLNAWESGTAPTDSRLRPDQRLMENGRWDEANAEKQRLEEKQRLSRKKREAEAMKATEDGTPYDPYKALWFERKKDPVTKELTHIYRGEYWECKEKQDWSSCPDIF
Procedure: A possible explanation for this observation was that treatment with 1 and 2 caused a decrease in OSBP1 levels. Treatment of HCT-116 cells with vehicle (DMSO) or 25-OHC (10 μM) had no effect on OSBP1 levels, as assessed by western blotting (FIG. 6A). However, treatment with 1 or 2 induced a dramatic, time-dependent reduction of OSBP1 levels (FIG. 6A). For example, 50 nM of 1 or 10 nM of 2 caused an approximately 75% reduction in OSBP1 protein levels at 24 h in HCT-116 cells (FIG. 6A), with a similar effect recorded in A549 cells. […] OSBP1 levels were determined using both an antibody recognizing the far N-terminus of OSBP1 (FIG. 6) and also an antibody recognizing the C-terminus of OSBP1.
One possible explanation for the reduction in OSBP1 levels upon treatment with 1 and 2 was proteasome-dependent degradation. To determine whether degradation of OSBP1 was proteasome dependent, proteasome inhibitors MG-132 or lactacystin were co-administered with 1 and 2. […] Similar results were obtained in A549 cells.

[2] = tested on: OSBP1 localization in HCT-116 cells; assay: OSBP1 localization by immunofluorescence microscopy, HCT-116; assay type: cell-based, human; settings: 4 h treatment
Procedure: Immunofluorescence microscopy. HCT-116 or A549 (adenocarcinomic human alveolar basal epithelial) cells were plated on coverslips in 6-well plates. After 72 h, the culture media was removed and replaced with media containing either compound or vehicle control. At the indicated time-points, the cells were fixed for 10 min using 3.7% formaldehyde in PBS. The coverslips were washed with PBS and permeabilized for 5 min with 0.5% Triton X-100 in PBS. Following PBS washing, the coverslips were blocked for 30 min using Image-iT™ FX (Invitrogen), washed with PBS, and then blocked for 30 min at room temperature (RT) with 1% BSA in PBS (BSA/PBS). The coverslips were then incubated overnight at 4° C. with a primary antibody solution in BSA/PBS. The coverslips were washed with BSA/PBS and incubated for 60 min at RT with Alexa Fluor®-conjugated secondary antibodies (Invitrogen) in BSA/PBS, with the final 30 min including incubation with Hoescht 33258. The coverslips were then washed sequentially with BSA/PBS, PBS, and water and finally mounted on microscope slides using Aqua Poly/Mount (Polysciences Inc.). Imaging data was acquired using Zeiss LSM 510 META scanning confocal microscope.
Although the function of OSBP1 is not yet fully elucidated, several cellular activities have been observed. For instance, OSBP1 translocates from cytoplasmic sites to the trans-Golgi network (TGN) upon addition of 25-OHC to cells. HCT-116 cells were treated with ORPphilins for short time periods (4 h) and the effects on OSBP1 localization monitored using immunofluorescence microscopy.
OSBP1 (green) and trans-Golgi protein P230 (red) were visualized in HCT-116 cells using indirect immunofluorescence microscopy. Cells were treated with compound for 4 h, fixed with 3.7% formaldehyde/PBS, washed, and permeabilized using 0.5% Triton X-100 in PBS. Proteins were labelled using specific primary antibodies against OSBP1 and P230 overnight at 4° C. After washing, cells were treated with Alexa Fluor 488 and Alexa Fluor 546 secondary antibodies for 1 h at RT.

`C[C@H](CCCC(C)(C)O)[C@H]1CC[C@H]2[C@@H]3CC=C4C[C@@H](O)CC[C@]4(C)[C@H]3CC[C@]12C` [Compound 25-OHC, 25-hydroxycholesterol] was tested, and the “effect on OSBP1 levels” value ([1]; 10 μM) was “no effect; also recorded: did not reduce” and the “suppression of OSBP1 level reduction caused by 2” value ([1]; 25-OHC (10 M or 20 M) with 2 (1 nM)) was “significantly suppressed”.

In the case of `COc1ccc(C(=O)O[C@H]2[C@H](O[C@@H]3[C@@H](OC(C)=O)[C@H](O[C@H]4C[C@H]5[C@@H]6CC=C7C[C@@H](O)CC[C@]7(C)[C@H]6CC[C@]5(C)[C@@]4(O)[C@H](C)C(=O)CCC(C)C)OC[C@@H]3O)OC[C@@H](O)[C@@H]2O)cc1` [OSW-1], the OSBP1 localization [2] is reported as “caused OSBP1 to localize to a perinuclear position that did not co-localize with p230” and the “reduction in OSBP1 protein levels” value ([1]; 10 nM) is reported as “approximately 75%”.

With `C[C@@H]1[C@]2(O[C@H]3C=C4[C@@H]5CC[C@H]6Cc7nc8c(nc7C[C@]6(C)[C@H]5C[C@@H](O)[C@]4(C)[C@]31O)C[C@@H]1CC[C@H]3C4=CC[C@@H]5[C@H](C)[C@@]6(OC[C@]45C(=O)C[C@@H]3[C@@]1(C)C8)OC(C)(C)C[C@H]6O)O[C@](C)(CO)C[C@H]2O` [cephalostatin 1, Cephalostatin 1] the OSBP1 localization [2] was “OSBP1 occupying a perinuclear position with little co-localization of the dispersed p230 marker”, the OSBP1 localization ([2]; listed as 1) was “partially localize to the plasma membrane” and the “reduction in OSBP1 protein levels” value ([1]; 50 nM) was “approximately 75%”.

With schweinfurthin A the OSBP1 localization [2] was “caused OSBP1 to accumulate at perinuclear positions with a large degree of co-localization with the trans-Golgi marker p230”, the “suppression of OSBP1 level reduction caused by 2” value ([1]; 5 μM with 10 nM of 2) was “completely suppressed” and the “effect on OSBP1 levels, compound alone” value ([1]; concentration not given) was “no effect”.
